Laboratory results from PubChem BioAssay (NCI).
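A five-concentration, 48-hour dose response in 96-well plates underlies each endpoint, interpolated linearly between surrounding concentrations. GI50 marks 50% less growth. TGI: concentration producing complete growth inhibition.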

Assays:
Assay in all cases: growth of human tumour cells (NCI), 48 h
MALME-3M melanoma = test system: MALME-3M melanoma
MOLT-4 leukemia = test system: MOLT-4 leukemia
COLO 205 colon = test system: COLO 205 colon
A549 NSCLC = test system: A549 NSCLC
SW-620 colon = test system: SW-620 colon
MCF7 breast = test system: MCF7 breast
HCT-15 colon = test system: HCT-15 colon
RXF 393 renal = test system: RXF 393 renal
NCI-H460 lung = test system: NCI-H460 lung
KM12 colon = test system: KM12 colon
NCI/ADR-RES ovarian = test system: NCI/ADR-RES ovarian
HL-60(TB) leukemia = test system: HL-60(TB) leukemia
SK-OV-3 ovarian = test system: SK-OV-3 ovarian
UO-31 renal = test system: UO-31 renal
NCI-H23 lung = test system: NCI-H23 lung
OVCAR-5 ovarian = test system: OVCAR-5 ovarian
ACHN renal = test system: ACHN renal
NCI-H522 lung = test system: NCI-H522 lung
HS 578T breast = test system: HS 578T breast
HOP-62 NSCLC = test system: HOP-62 NSCLC
SNB-19 CNS = test system: SNB-19 CNS
SK-MEL-2 melanoma = test system: SK-MEL-2 melanoma
NCI-H226 lung = test system: NCI-H226 lung
786-0 renal = test system: 786-0 renal
IGROV1 ovarian = test system: IGROV1 ovarian
SF-268 CNS = test system: SF-268 CNS
OVCAR-8 ovarian = test system: OVCAR-8 ovarian
M14 melanoma = test system: M14 melanoma
HCT-116 colon = test system: HCT-116 colon
SF-539 CNS = test system: SF-539 CNS
SN12C renal = test system: SN12C renal
MDA-MB-231 breast = test system: MDA-MB-231 breast
BT-549 breast = test system: BT-549 breast
SF-295 CNS = test system: SF-295 CNS
CCRF-CEM leukemia = test system: CCRF-CEM leukemia
T-47D breast = test system: T-47D breast
U251 CNS = test system: U251 CNS
SK-MEL-5 melanoma = test system: SK-MEL-5 melanoma
A498 renal = test system: A498 renal
HT29 colon = test system: HT29 colon
TK-10 renal = test system: TK-10 renal
OVCAR-4 ovarian = test system: OVCAR-4 ovarian
HOP-92 NSCLC = test system: HOP-92 NSCLC
HCC-2998 colon = test system: HCC-2998 colon
EKVX NSCLC = test system: EKVX NSCLC
DU-145 prostate = test system: DU-145 prostate
LOX IMVI melanoma = test system: LOX IMVI melanoma
K-562 leukemia = test system: K-562 leukemia
RPMI-8226 leukemia = test system: RPMI-8226 leukemia
UACC-62 melanoma = test system: UACC-62 melanoma
SK-MEL-28 melanoma = test system: SK-MEL-28 melanoma
CAKI-1 renal = test system: CAKI-1 renal
PC-3 prostate = test system: PC-3 prostate
SNB-75 CNS = test system: SNB-75 CNS
SR leukemia = test system: SR leukemia
OVCAR-3 ovarian = test system: OVCAR-3 ovarian
MDA-MB-435 = test system: MDA-MB-435
UACC-257 melanoma = test system: UACC-257 melanoma

C#CC(=O)N(c1ccc(OC)cc1OC)C(C(=O)NCC(=O)OCC)c1cccs1 (stereo unspecified)
GI50 (MALME-3M melanoma): 0.066 µM | TGI (MALME-3M melanoma): 0.164 µM | GI50 (MOLT-4 leukemia): 0.375 µM | TGI (MOLT-4 leukemia): 1.95 µM | GI50 (COLO 205 colon): 1.81 µM | TGI (COLO 205 colon): 3.74 µM | GI50 (A549 NSCLC): 5.56 µM | TGI (A549 NSCLC): 31.7 µM | GI50 (SW-620 colon): 1.27 µM | TGI (SW-620 colon): 3.05 µM | GI50 (MCF7 breast): 2.04 µM | TGI (MCF7 breast): 9.1 µM | GI50 (HCT-15 colon): 0.759 µM | TGI (HCT-15 colon): 2.39 µM | GI50 (RXF 393 renal): 0.271 µM | TGI (RXF 393 renal): 1.01 µM | GI50 (NCI-H460 lung): 0.717 µM | TGI (NCI-H460 lung): 6.84 µM | GI50 (KM12 colon): 0.372 µM | TGI (KM12 colon): 2.24 µM | GI50 (NCI/ADR-RES ovarian): 0.177 µM | TGI (NCI/ADR-RES ovarian): 0.813 µM | GI50 (HL-60(TB) leukemia): 0.0187 µM | TGI (HL-60(TB) leukemia): 0.0387 µM | GI50 (SK-OV-3 ovarian): 1.82 µM | TGI (SK-OV-3 ovarian): 3.4 µM | GI50 (UO-31 renal): 0.0167 µM | TGI (UO-31 renal): 0.0339 µM | GI50 (NCI-H23 lung): 0.257 µM | TGI (NCI-H23 lung): 1.07 µM | GI50 (OVCAR-5 ovarian): 0.574 µM | TGI (OVCAR-5 ovarian): 2.33 µM | GI50 (ACHN renal): 0.114 µM | TGI (ACHN renal): 1.25 µM | GI50 (NCI-H522 lung): 0.0831 µM | TGI (NCI-H522 lung): 0.258 µM | GI50 (HS 578T breast): 0.444 µM | TGI (HS 578T breast): 3.26 µM | GI50 (HOP-62 NSCLC): 0.436 µM | TGI (HOP-62 NSCLC): 2.28 µM | GI50 (SNB-19 CNS): 2.42 µM | TGI (SNB-19 CNS): 8.08 µM | GI50 (SK-MEL-2 melanoma): 11 µM | TGI (SK-MEL-2 melanoma): 26.2 µM | GI50 (NCI-H226 lung): 11.3 µM | TGI (NCI-H226 lung): 38 µM | GI50 (786-0 renal): 0.0191 µM | TGI (786-0 renal): 0.0389 µM | GI50 (IGROV1 ovarian): 0.03 µM | TGI (IGROV1 ovarian): 0.0979 µM | GI50 (SF-268 CNS): 0.326 µM | TGI (SF-268 CNS): 1.17 µM | GI50 (OVCAR-8 ovarian): 0.97 µM | TGI (OVCAR-8 ovarian): 17.9 µM | GI50 (M14 melanoma): 1.88 µM | TGI (M14 melanoma): 4.54 µM | GI50 (HCT-116 colon): 1.58 µM | TGI (HCT-116 colon): 3.42 µM | GI50 (SF-539 CNS): 0.0567 µM | TGI (SF-539 CNS): 0.11 µM | GI50 (SN12C renal): 2.21 µM | TGI (SN12C renal): 16.5 µM | GI50 (MDA-MB-231 breast): 0.173 µM | TGI (MDA-MB-231 breast): 1.14 µM | GI50 (BT-549 breast): 0.318 µM | TGI (BT-549 breast): 1.19 µM | GI50 (SF-295 CNS): 0.183 µM | TGI (SF-295 CNS): 0.362 µM | GI50 (CCRF-CEM leukemia): 0.0277 µM | TGI (CCRF-CEM leukemia): 0.081 µM | GI50 (T-47D breast): 2.01 µM | TGI (T-47D breast): 5.1 µM | GI50 (U251 CNS): 0.445 µM | TGI (U251 CNS): 1.26 µM | GI50 (SK-MEL-5 melanoma): 8.82 µM | TGI (SK-MEL-5 melanoma): 21.3 µM | GI50 (A498 renal): 0.215 µM | TGI (A498 renal): 0.541 µM | GI50 (HT29 colon): 0.241 µM | TGI (HT29 colon): 0.61 µM | GI50 (TK-10 renal): 3.96 µM | TGI (TK-10 renal): 10.7 µM | GI50 (OVCAR-4 ovarian): 1.75 µM | TGI (OVCAR-4 ovarian): 3.97 µM | GI50 (HOP-92 NSCLC): 0.0313 µM | TGI (HOP-92 NSCLC): 0.11 µM | GI50 (HCC-2998 colon): 4.98 µM | TGI (HCC-2998 colon): 17.7 µM | GI50 (EKVX NSCLC): 0.26 µM | TGI (EKVX NSCLC): 1.32 µM | GI50 (DU-145 prostate): 0.436 µM | TGI (DU-145 prostate): 4.02 µM | GI50 (LOX IMVI melanoma): < 0.0125 µM | TGI (LOX IMVI melanoma): < 0.0185 µM | GI50 (K-562 leukemia): 0.594 µM | TGI (K-562 leukemia): 2.96 µM | GI50 (RPMI-8226 leukemia): 0.0449 µM | TGI (RPMI-8226 leukemia): 0.193 µM | GI50 (UACC-62 melanoma): 1.47 µM | TGI (UACC-62 melanoma): 5.81 µM | GI50 (SK-MEL-28 melanoma): 2.26 µM | TGI (SK-MEL-28 melanoma): 6.03 µM | GI50 (CAKI-1 renal): 0.187 µM | TGI (CAKI-1 renal): 0.901 µM | GI50 (PC-3 prostate): 0.871 µM | TGI (PC-3 prostate): 7.88 µM | GI50 (SNB-75 CNS): 0.152 µM | TGI (SNB-75 CNS): 0.399 µM | GI50 (SR leukemia): 0.022 µM | TGI (SR leukemia): 0.0528 µM | GI50 (OVCAR-3 ovarian): 0.16 µM | TGI (OVCAR-3 ovarian): 0.528 µM | GI50 (MDA-MB-435): 3.8 µM | TGI (MDA-MB-435): 16.2 µM | GI50 (UACC-257 melanoma): 3.29 µM | TGI (UACC-257 melanoma): 13 µM
